# Measurements reported in patent publication US8716324B2, “Tricyclic indeno-pyrrole derivatives as serotonin receptor modulators” (Athersys, Inc., priority 2004, dated 2014).
# Biological target: human 5HT2c receptor (VSV Isoform) (Homo sapiens, UniProt P28335, I156V/I160V/N158S)
# Assay: cell-based
# Conditions: 5-HT2c EC50 (hVSV, μM)
# human 5HT2c receptor (VSV Isoform), sequence (P28335 33-458 I156V/N158S/I160V limits assumed): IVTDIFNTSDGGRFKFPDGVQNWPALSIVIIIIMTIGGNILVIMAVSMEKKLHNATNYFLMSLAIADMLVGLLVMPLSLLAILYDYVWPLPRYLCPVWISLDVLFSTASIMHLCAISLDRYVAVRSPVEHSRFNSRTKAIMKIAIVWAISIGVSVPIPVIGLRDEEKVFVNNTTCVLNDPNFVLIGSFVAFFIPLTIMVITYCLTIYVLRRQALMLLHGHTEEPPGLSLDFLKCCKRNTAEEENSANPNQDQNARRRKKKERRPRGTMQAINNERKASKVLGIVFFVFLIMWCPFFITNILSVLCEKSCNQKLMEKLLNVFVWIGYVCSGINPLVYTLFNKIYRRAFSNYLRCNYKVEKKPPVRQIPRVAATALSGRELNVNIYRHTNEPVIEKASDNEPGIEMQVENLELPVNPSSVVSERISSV
row,SMILES,EC50 [µM]
1,"COc1cc2c(cc1Cl)C(=O)C1CNCC21 (stereo not drawn) [Example 53, 5-Methoxy-6-chloro-2,3,3a,8a-tetrahydro-1H-2-aza-cyclopenta[a]inden-8-one]",< 1
2,"Cc1cc2c(cc1Cl)C1CNCC1C2C (single isomer, unassigned) [23, Enantiomer 1]",< 1
3,"CC1c2ccc(OC(F)(F)F)cc2C2CNCC12 (stereo not drawn) [Example 40, 5-Trifluoromethoxy-8-methyl-1,2,3,3a,8,8a-hexahydroindeno[1,2-c]pyrrole]",> 10
4,"Cc1cc2c(cc1Cl)C1CNCC1C2C (single isomer, unassigned) [23, Enantiomer 2]",< 0.1
5,"COc1ccc2c(c1)C1CNCC1C2C (single isomer, unassigned) [1, Enantiomer 2]",< 1
6,"COc1cc2c(cc1Cl)CC1CNCC21 (single isomer, unassigned) [37, Enantiomer 1]",< 0.1
7,"Cc1cc2c(cc1Cl)C1CNCC1C2C (stereo not drawn) [Example 23, 5-Chloro-6-methyl-8-methyl-1,2,3,3a,8,8a-hexahydroindeno[1,2-c]pyrrole]",< 1
8,"Cc1cccc2c1C1CNCC1C2C (stereo not drawn) [Example 14, 4-Methyl-8-methyl-1,2,3,3a,8,8a-hexahydroindeno[1,2-c]pyrrole]",< 1
9,"CC1c2ccc(F)cc2C2CNCC12 (stereo not drawn) [Example 18, 5-Fluoro-8-methyl-1,2,3,3a,8,8a-hexahydroindeno[1,2-c]pyrrole]",< 1
